Article PMC6757289, “Design and Characterization of SGK3-PROTAC1, an Isoform Specific SGK3 Kinase PROTAC Degrader” (ACS Chemical Biology, 2019)

Target: T1, SGK3 (Homo sapiens, UniProt Q96BR1)
T1 sequence (Q96BR1 1-496): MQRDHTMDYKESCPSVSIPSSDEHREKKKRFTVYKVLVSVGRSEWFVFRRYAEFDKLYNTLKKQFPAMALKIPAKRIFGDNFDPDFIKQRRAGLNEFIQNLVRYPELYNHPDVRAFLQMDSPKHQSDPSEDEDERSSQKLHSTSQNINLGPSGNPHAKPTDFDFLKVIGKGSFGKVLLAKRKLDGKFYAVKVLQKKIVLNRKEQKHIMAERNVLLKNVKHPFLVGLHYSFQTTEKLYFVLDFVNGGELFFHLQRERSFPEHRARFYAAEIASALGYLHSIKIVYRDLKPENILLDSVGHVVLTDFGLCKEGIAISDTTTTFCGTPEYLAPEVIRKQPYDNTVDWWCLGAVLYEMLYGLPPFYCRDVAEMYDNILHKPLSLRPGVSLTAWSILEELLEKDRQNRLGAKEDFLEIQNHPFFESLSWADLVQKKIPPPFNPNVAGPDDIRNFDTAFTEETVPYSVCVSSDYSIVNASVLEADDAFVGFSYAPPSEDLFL
Assay: SGK3 degradation in HEK293 cells, immunoblot
Format: cell-based
Design: reduced endogenous SGK isoform or S6K1 expression when administered to HEK293 cells for 48 h; endogenous in cells; host or cells: HEK293; Dmax: dose or concentration left out as unconfirmed
Settings: for remaining activity at 0.001 µM / remaining activity at 0.01 µM / remaining activity at 0.1 µM / remaining activity at 1 µM / remaining activity at 10 µM: Figure 2; for degradation of SGK3: HEK293, 8 h, cisSGK3-PROTAC1 up to 3 μM, SGK3-PROTAC1 0.1 μM
Procedure: Figure 1 Design and cellular activity of first generation SGK3 PROTACs. (A) Structure of compound 14H, previously published by Sanofi as an inhibitor of SGK3. (B) Starting material for SGK PROTACs. […] (C) Structures of first generation SGK PROTACs. SGK and E3 ligase targeting motifs were joined by a 3xPEG linker to produce the PROTACs. (D) HEK293 cells were treated for 48 h with increasing concentrations of each PROTAC compound from 0.1 nM to 10 μM. Cell lysates were subjected to immunoblot analysis with the indicated antibodies, and SGK3 protein levels were quantified in Image Studio Lite software (Licor).
Figure 2 Design and cellular evaluation of second and third generation SGK PROTACs. (A) Chemical structure of compounds DAT5–12, expanding upon DAT1. (B) Chemical structure of cisSGK3-PROTAC1. (C) HEK293 cells were treated for 48 h with increasing concentrations of each PROTAC compound from 1 nM to 10 μM. Cell lysates were subjected to immunoblot analysis with the indicated antibodies, and SGK3 protein levels quantified in Image Studio Lite software. (D) HEK293 cells were treated for 48 h with increasing concentrations of each PROTAC compound from 1 nM to 10 μM. Cell lysates were subjected to immunoblot analysis with the indicated antibodies, and SGK3 and S6K1 protein levels were quantified in Image Studio Lite software. TEXT PRINTED IN THE PICTURE: (C) DAT1: % SGK3: 100 (48h Treatment (μM): 0); % SGK3: 94 (48h Treatment (μM): 0.001); % SGK3: 82 (48h Treatment (μM): 0.01); % SGK3: 70 (48h Treatment (μM): 0.1); % SGK3: 52 (48h Treatment (μM): 1); % SGK3: 31 (48h Treatment (μM): 10) | (C) DAT5: % SGK3: 100 (48h Treatment (μM): 0); % SGK3: 104 (48h Treatment (μM): 0.001); % SGK3: 82 (48h Treatment (μM): 0.01); % SGK3: 92 (48h Treatment (μM): 0.1); % SGK3: 73 (48h Treatment (μM): 1); % SGK3: 36 (48h Treatment (μM): 10) | (C) DAT6: % SGK3: 100 (48h Treatment (μM): 0); % SGK3: 105 (48h Treatment (μM): 0.001); % SGK3: 90 (48h Treatment (μM): 0.01); % SGK3: 71 (48h Treatment (μM): 0.1); % SGK3: 44 (48h Treatment (μM): 1); % SGK3: 20 (48h Treatment (μM): 10) | (C) DAT7: % SGK3: 100 (48h Treatment (μM): 0); % SGK3: 77 (48h Treatment (μM): 0.001); % SGK3: 80 (48h Treatment (μM): 0.01); % SGK3: 95 (48h Treatment (μM): 0.1); % SGK3: 37 (48h Treatment (μM): 1); % SGK3: 29 (48h Treatment (μM): 10) | (D) DAT8: % SGK3: 100 (48h Treatment (μM): 0); % SGK3: 97 (48h Treatment (μM): 0.001); % SGK3: 107 (48h Treatment (μM): 0.01); % SGK3: 34 (48h Treatment (μM): 0.1); % SGK3: 24 (48h Treatment (μM): 1); % SGK3: 19 (48h Treatment (μM): 10) | (D) DAT9: % SGK3: 100 (48h Treatment (μM): 0); % SGK3: 105 (48h Treatment (μM): 0.001); % SGK3: 71 (48h Treatment (μM): 0.01); % SGK3: 40 (48h Treatment (μM): 0.1); % SGK3: 11 (48h Treatment (μM): 1); % SGK3: 12 (48h Treatment (μM): 10) | (D) DAT10: % SGK3: 100 (48h Treatment (μM): 0); % SGK3: 100 (48h Treatment (μM): 0.001); % SGK3: 76 (48h Treatment (μM): 0.01); % SGK3: 54 (48h Treatment (μM): 0.1); % SGK3: 11 (48h Treatment (μM): 1); % SGK3: 9 (48h Treatment (μM): 10) | (D) DAT11: % SGK3: 100 (48h Treatment (μM): 0); % SGK3: 96 (48h Treatment (μM): 0.001); % SGK3: 97 (48h Treatment (μM): 0.01); % SGK3: 41 (48h Treatment (μM): 0.1); % SGK3: 32 (48h Treatment (μM): 1); % SGK3: 29 (48h Treatment (μM): 10) | (D) DAT12: % SGK3: 100 (48h Treatment (μM): 0); % SGK3: 106 (48h Treatment (μM): 0.001); % SGK3: 84 (48h Treatment (μM): 0.01); % SGK3: 79 (48h Treatment (μM): 0.1); % SGK3: 32 (48h Treatment (μM): 1); % SGK3: 29 (48h Treatment (μM): 10) DOUBTS OF THE COPYIST ABOUT THIS PICTURE: All % SGK3 values are quantification numbers printed under immunoblot lanes; each was assigned to a concentration by lane position / DAT9 and DAT10, % SGK3: the first numbers are printed run together ('100105', '100100') and were split as 100 | 105 and 100 | 100
Figure 3 Characterization of cellular activities of SGK3-PROTAC1 and cisSGK3-PROTAC1. […]

[1] = HEK293, washout after 24 h of treatment

SMILES	time of maximal reduction of SGK3 expression (HEK293, 1 μM)	concentration that maximally reduced SGK3 expression (HEK293, 8 h time point, dose response)	SGK3 degradation efficiency (HEK293, 48 h)	remaining activity at 0.001 µM (HEK293, 48 h)	remaining activity at 0.01 µM (HEK293, 48 h)	remaining activity at 0.1 µM (HEK293, 48 h, 0.1 μM)	reduction of SGK3 expression (HEK293, 48 h, 1 μM)	remaining activity at 1 µM (HEK293, 48 h, 1 μM)	reduction of SGK3 expression (HEK293, 48 h, 10 μM)	remaining activity at 10 µM (HEK293, 48 h, 10 μM)	degradation of endogenous SGK3 (HEK293, 0.3 μM, within 2 h)	degradation of SGK3	reduction of SGK3 levels (HEK293, 48 h, 0.1 μM)	time to increased SGK3 expression after washout [1]	time to return of SGK3 protein to normal levels after washout [1]	Dmax (HEK293, within 8 h, read-out: maximal degradation of SGK3)	DC50 (SGK3 degradation)
Cc1ccc(F)c(S(=O)(=O)Nc2ccc(-c3nc(OC[C@H]4CN(CCOCCOCCOCC(=O)N[C@H](C(=O)N5C[C@H](O)C[C@H]5C(=O)NCc5ccc(-c6scnc6C)cc5)C(C)(C)C)CCO4)c4cn[nH]c4n3)cc2)c1 [DAT1]	≤ 16 h	2 µM	+ (“+” = >50% degradation at 10 μM)	94%	82%	70%	60%	52%	75%	31%							
Cc1ccc(F)c(S(=O)(=O)Nc2ccc(-c3nc(OC[C@H]4CN(CCCCCCOCCOCCOCC(=O)N[C@H](C(=O)N5C[C@H](O)C[C@H]5C(=O)NCc5ccc(-c6scnc6C)cc5)C(C)(C)C)CCO4)c4cn[nH]c4n3)cc2)c1 [SGK3-PROTAC1]			++++ (“++++” = >60% degradation at 0.1 μM)	97%	107%	34%		24%		19%	50%	markedly reduced SGK3 expression	65%	1 h	10 h	80%	< 100 nM
Cc1ccc(F)c(S(=O)(=O)Nc2ccc(-c3nc(OC[C@H]4CN(CCCCCCOCCOCCOCC(=O)N[C@H](C(=O)N5C[C@@H](O)C[C@H]5C(=O)NCc5ccc(-c6scnc6C)cc5)C(C)(C)C)CCO4)c4cn[nH]c4n3)cc2)c1 [cisSGK3-PROTAC1]												failed to induce degradation of SGK3					

Second part, led by results:

time of maximal reduction of SGK3 expression (HEK293, 1 μM)	concentration that maximally reduced SGK3 expression (HEK293, 8 h time point, dose response)	SGK3 degradation efficiency (HEK293, 48 h)	remaining activity at 0.001 µM (HEK293, 48 h)	remaining activity at 0.01 µM (HEK293, 48 h)	remaining activity at 0.1 µM (HEK293, 48 h, 0.1 μM)	reduction of SGK3 expression (HEK293, 48 h, 1 μM)	remaining activity at 1 µM (HEK293, 48 h, 1 μM)	reduction of SGK3 expression (HEK293, 48 h, 10 μM)	remaining activity at 10 µM (HEK293, 48 h, 10 μM)	SMILES	degradation of endogenous SGK3 (HEK293, 0.3 μM, within 2 h)	degradation of SGK3	reduction of SGK3 levels (HEK293, 48 h, 0.1 μM)	time to increased SGK3 expression after washout [1]	time to return of SGK3 protein to normal levels after washout [1]	Dmax (HEK293, within 8 h, read-out: maximal degradation of SGK3)	DC50 (SGK3 degradation)
		+ (“+” = >50% degradation at 10 μM)	104%	82%	92%		73%		36%	Cc1ccc(F)c(S(=O)(=O)Nc2ccc(-c3nc(OC[C@H]4CN(CCOCCOCC(=O)N[C@H](C(=O)N5C[C@H](O)C[C@H]5C(=O)NCc5ccc(-c6scnc6C)cc5)C(C)(C)C)CCO4)c4cn[nH]c4n3)cc2)c1 [DAT5]							
		++ (“++” = >50% degradation at 1 μM)	105%	90%	71%		44%		20%	Cc1ccc(F)c(S(=O)(=O)Nc2ccc(-c3nc(OC[C@H]4CN(CCOCCOCCOCCOCC(=O)N[C@H](C(=O)N5C[C@H](O)C[C@H]5C(=O)NCc5ccc(-c6scnc6C)cc5)C(C)(C)C)CCO4)c4cn[nH]c4n3)cc2)c1 [DAT6]							
		++ (“++” = >50% degradation at 1 μM)	77%	80%	95%		37%		29%	Cc1ccc(F)c(S(=O)(=O)Nc2ccc(-c3nc(OC[C@H]4CN(CCOCCOCCOCCOCCOCC(=O)N[C@H](C(=O)N5C[C@H](O)C[C@H]5C(=O)NCc5ccc(-c6scnc6C)cc5)C(C)(C)C)CCO4)c4cn[nH]c4n3)cc2)c1 [DAT7]							
		++ (“++” = >50% degradation at 1 μM)	100%	76%	54%		11%		9%	Cc1ccc(F)c(S(=O)(=O)Nc2ccc(-c3nc(OC[C@H]4CN(CCCCCCOCCCCCCOCC(=O)N[C@H](C(=O)N5C[C@H](O)C[C@H]5C(=O)NCc5ccc(-c6scnc6C)cc5)C(C)(C)C)CCO4)c4cn[nH]c4n3)cc2)c1 [DAT10]							
		+++ (“+++” = >50% degradation at 0.1 μM)	96%	97%	41%		32%		29%	COc1ccc(Cl)c(S(=O)(=O)Nc2ccc(-c3nc(OC[C@H]4CN(CCCCCCOCCOCCOCCOCC(=O)N[C@H](C(=O)N5C[C@H](O)C[C@H]5C(=O)NCc5ccc(-c6scnc6C)cc5)C(C)(C)C)CCO4)c4c(C)n[nH]c4n3)cc2)c1 [DAT11]							
